{
  "source": "patent US20220323427A1",
  "about": "“SOMATOSTATIN RECEPTOR TYPE 5 AGONIST FOR THE TREATMENT OF HYPERINSULINISM” (Crinetics Pharmaceuticals, Inc., priority 2021, published 2022)",
  "key": {"[1]": {"test": "MAD study pharmacokinetics", "type": "in vivo, human", "description": "MAD/Part 2: multiple ascending dose, randomized, placebo-controlled, double-blind; up to 5 cohorts, n=9/cohort; subjects in MAD will receive Compound 1 or the placebo. Subjects will undergo a mixed meal tolerance test (MMTT) and an SU challenge and euglycemic clamp procedure. The doses will not exceed the doses in the SAD. Doses will escalate from 30 mg to 120 mg."}, "[2]": {"tested_on": "incretin-induced insulin secretion", "test": "Mixed meal tolerance test (MMTT), MAD", "type": "in vivo, human", "details": "Day 6", "description": "An MMTT will be conducted during the MAD study to assess the impact of Compound 1 on incretin-induced insulin secretion. This will be conducted at baseline (before study drug dosing) in the MAD and at Day 6 at which Compound 1 is predicted to be at steady state.\nThe purpose of the MMTT is to evaluate the effect of Compound 1 on plasma insulin in response to multiple fuel sources (protein, fat) and to evaluate the impact on incretin-induced insulin secretion. Subjects are to fast at least 10 hours overnight until ingestion of the mixed meal (which is to occur approximately 4 hours after study drug dosing), and then restrict further food intake until the end of the MMTT.\nStart the MMTT (i.e., drink the mixed meal) on Day −1 and Day 6 at 4 hours (±30 minutes) post-study drug dosing (i.e., Time 240 minutes) or at nominal time. The total duration of the MMTT will be approximately 3.5 hours from when the first pre-drink blood sample is collected until the last MMTT blood sample is collected. The subject is to be in the supine position during the MMTT, except while consuming the mixed meal. The procedure will be as follows:\nCollect pre-drink fasting blood samples for measurement of PG, insulin, C-peptide, glucagon, GIP, and GLP-1 at the timepoints specified in (SOA).\nAt 4 hours after study drug dosing/Time 240 minutes (or nominal time), the subject is to drink 400 mL (2×200-mL bottles) Resource® Energy (Nestlé Health Science) drink (mixed meal) within ≤10 minutes.\nCollect post-drink blood samples for measurement of PG, insulin, C-peptide, glucagon, and GLP-1 at the timepoints specified in (SOA). The subject is to not eat or drink (except for water) until the last MMTT blood sample is collected."}, "[3]": {"tested_on": "glucose stimulated insulin secretion", "test": "Intravenous glucose tolerance test (IVGTT), SAD", "type": "in vivo, human", "description": "The results from the IVGTT will help inform selection of the single dose that will be used in SAD 1b and SAD 1c and also to inform the doses used in the MAD.\nA summary of the procedure is as follows: Collect pre-IV bolus blood samples for measurement of PG, insulin, and C-peptide. At 1 hour after study drug dosing/Time 60 (±30 minutes) or nominal time, administer an IV bolus of glucose at 300 mg/kg in 20% solution, within 60 seconds (use the most recent body weight measurement for glucose dose). Collect post-IV bolus blood samples for measurement of PG, insulin, and C-peptide."}, "[4]": {"test": "Fasting glucose, insulin and C-peptide, MAD", "type": "in vivo, human", "details": "30-120 mg QD for 10 days", "description": "Patients with congenital HI have fasting hypoglycemia due to excess endogenous insulin secretion. Metabolic biomarkers including glucose, insulin, C-peptide, and βhydroxybutyrate will be collected throughout both the SAD and MAD to assess the effect of single and multiple doses of Compound 1."}, "human pancreatic islets": {"tested_on": "human pancreatic islets", "test": "Glucagon secretion in perifused human islets", "type": "cell-based", "details": "islets from a healthy donor; G3+Arg", "description": "For glucagon secretion, glucose (Boston BioProducts #BM-675) solutions, G3, G16.7 and G3 plus 20 mM arginine (Sigma #A8094; G3+Arg) were prepared in PB [24 mM NaHCO3 (Fisher Scientific #S233-500), 120 mM NaCl (Spectrum Chemical #S0155), 4.8 mM KCl (Fisher Scientific #P217-500), 2.5 mM CaCl2 (Fisher Scientific #C614-500), 1.2 mM MgCl2 (Sigma #M8266), 10 mM HEPES (Gibco #15630-080) and 0.1% BSA (EMD Millipore #12-675-100GM)]. Various concentrations of Compound 1 and diazoxide (Sigma #D9035) were prepared in G16.7 or in G3+Arg. On the day of the assay, ten perifusion chambers (Biorep #Peri-chamber) were loaded with a bead suspension (Biorep #Peri-beads-20) followed by 300 IEQ and another layer of bead suspension. Chambers were filled with PB, placed in the perifusion equipment and equilibrated with G3 for 74 min (flow rate=230 μL/min) followed by the perifusion steps for glucagon secretion shown in Table 3. […] Glucagon concentration was quantified using the commercially-available Mercodia Glucagon ELISA (Mercodia #10-1271-01) kit. undiluted perfusate samples were added to the supplied pre-coated assay plates. […] The optical density of each well was determined at 450 nm in a Tecan M1000Pro (Tecan, Switzerland) multiplate reader. Glucagon concentrations were calculated by regression to the standard curve using GraphPad Prism (GraphPad, San Diego, Calif.)."}, "[5]": {"details": "single oral dose prior to IV glucose"}},
  "data": [
    {"smiles": "C[C@H](NC(=O)c1cnc(C#N)c(-c2cc(F)cc(F)c2)c1N1CC[C@H](N)C1)C(F)(F)F", "note": "[Compound 1, 4-[(3S)-3-aminopyrrolidin-1-yl]-6-cyano-5-(3,5-difluorophenyl)-N-[(2S)-1,1,1-trifluoropropan-2-yl]pyridine-3-carboxamide]", "values": [
      {"measurement": "Time to steady state trough levels", "setting": "[1]; QD dosing", "value": "~8", "unit": "days"},
      {"measurement": "Mean accumulation at steady state for AUC", "setting": "[1]; QD dosing 30-120 mg", "value": "2-2.5 ×"},
      {"measurement": "Mean accumulation at steady state for Cmaz", "setting": "[1]; QD dosing 30-120 mg", "value": "1.6-1.8 ×"},
      {"measurement": "Dose proportionality of exposures", "setting": "[1]; between 30 and 120 mg doses", "value": "Modestly greater than proportional increases in exposures"},
      {"measurement": "Increase in plasma glucose AUC in MMTT", "setting": "[2]; 30 mg QD", "value": "~30", "unit": "%"},
      {"measurement": "Increase in plasma glucose AUC in MMTT", "setting": "[2]; 60 mg QD", "value": "~30", "unit": "%"},
      {"measurement": "Increase in plasma glucose AUC in MMTT", "setting": "[2]; 120 mg QD", "value": "~60", "unit": "%"},
      {"measurement": "Insulin and C-peptide in MMTT", "setting": "[2]; 30-120 mg QD", "value": "more sustained suppression of insulin and C-peptide with increasing dose"},
      {"measurement": "% reduction in insulin AUC", "setting": "[3]; 27 mg dose", "value": "about 22%"},
      {"measurement": "% reduction in insulin AUC", "setting": "[3]; 60 mg dose", "value": "about 40%"},
      {"measurement": "% reduction in insulin AUC", "setting": "[3]; 120 mg dose", "value": "about 47%"},
      {"measurement": "Insulin secretion in IVGTT", "setting": "[3]; [5]", "value": "dose-dependently suppressed insulin secretion"},
      {"measurement": "Plasma glucose in IVGTT", "setting": "[3]; [5]", "value": "rapid and sustained increase in plasma glucose levels"},
      {"measurement": "Fasting insulin and C-peptide levels", "setting": "[4]", "value": "suppressed"},
      {"measurement": "Fasting plasma glucose", "setting": "[4]", "value": "dose-dependent increase in fasting plasma glucose"},
      {"measurement": "Inhibition of arginine-stimulated glucagon secretion", "setting": "human pancreatic islets", "value": "up to 24%"}
    ]}
  ]
}
